Test results from publication PMC13198932, “Pyrazolone-based ERO1 inhibitors in ERO1-driven triple-negative breast cancer and SEPN1-related myopathy: Structure–activity relationship and therapeutic potential” (Pharmacological research, 2025).

Tests used:
[1] = parameters: method as in PMID 37132383; details: cited from earlier work
WT and SEPN1 KO mice = assay: Whole-body plethysmography in WT and SEPN1 KO mice; assay type: in vivo; details: 10 mg/kg i.p. once daily for five days
Description: Wild-type (WT) and SEPN1 knockout (KO) C57BL/6 male mice, aged 4 months, were fed either a selenium-deficient diet or a diet containing 0,4 ppm selenium for four months (cod. 10105101, Charles River). Experimental protocols followed D.lgs. 26/2014 (authorization 19/2008-A; authorization 465/2023-PR to E. Zito). All animal experiments were performed in accordance with the ARRIVE guidelines and complied with relevant national and international laws, regulations, and policies governing the care and use of laboratory animals, including Italian law.
Wild-type (WT) and SEPN1 knockout (KO) male mice, previously fed a selenium-deficient diet or a diet containing 0.4 ppm selenium, were randomized to receive intraperitoneal (i.p.) injections of I29 or vehicle alone. Treatments were administered once daily for five consecutive days at a dose of 10 mg/kg. Twenty-four hours after the final injection, mice underwent whole-body plethysmography (Whole Body Plethysmography by emkaTechnologies) under baseline conditions in ambient air to assess several respiratory parameters reflecting ventilatory efficiency. In particular, tidal volume (TV), breathing frequency (f), peak inspiratory flow (PIF), and mean inspiratory flow (TV/inspiratory time [TI]) were measured. Both intra- and inter-subject coefficients of variation (CV) for TV and f were also computed.

ERO1 in E0771 cells = target: T1, ERO1 in E0771 cells (Mus musculus, UniProt Q8R180); assay: ERO1 redox state by non-reducing immunoblot in E0771 cells; assay type: cell-based, murine; details: E0771, Fig. 4F
T1 construct: endogenous in cells; host or cells: E0771
T1 sequence (Q8R180 24-464): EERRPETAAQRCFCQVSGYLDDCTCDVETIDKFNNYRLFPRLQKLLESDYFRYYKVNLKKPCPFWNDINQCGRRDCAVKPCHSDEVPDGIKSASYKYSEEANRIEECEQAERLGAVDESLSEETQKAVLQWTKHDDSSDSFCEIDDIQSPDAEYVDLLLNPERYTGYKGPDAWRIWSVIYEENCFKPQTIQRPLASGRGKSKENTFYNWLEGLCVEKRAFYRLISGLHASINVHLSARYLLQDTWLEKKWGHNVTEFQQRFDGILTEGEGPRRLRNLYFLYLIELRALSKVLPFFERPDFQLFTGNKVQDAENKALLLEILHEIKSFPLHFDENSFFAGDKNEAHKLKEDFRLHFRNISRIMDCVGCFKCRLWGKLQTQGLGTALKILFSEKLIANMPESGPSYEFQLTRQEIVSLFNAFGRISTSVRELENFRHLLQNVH
Description: MDAMB231 and E0771 cells were maintained in Dulbecco’s Modified Eagle’s Medium supplemented with 1 % fetal bovine serum and seeded at 70 % confluency in six-well plates one day prior to the experiment. Cells were treated with DTT (10 mM) and/or ERO1A inhibitors for 1–5 h. At the time of collection, phosphate-buffered saline containing 10 mM NEM was added, and cells were incubated on ice for 10 min in lysis buffer (50 mM Tris-HCl, pH 7.4; 150 mM NaCl; 1 % Triton X-100; 0.1 % SDS; 1 % sodium deoxycholate; protease inhibitors; and 10 mM NEM). Protein concentrations were determined using the BCA assay, and equal amounts of protein were separated by non-reducing SDS-PAGE followed by immunoblotting with a polyclonal antibody against ERO1A [33].

[2] = tested on: WT and SEPN1 KD C2C12 muscle cells; assay: Real-time quantitative RT-PCR of ER stress markers BIP, CHOP, ERO1; assay type: cell-based; details: 2 μM
Text: RNA from WT and SEPN1KD C2C12 was reverse-transcribed and analyzed using the Applied Biosystems’ real-time PCR System and the ΔΔCt method. Relative gene expression in cells was normalized to Actin mRNA levels as in [27].

[3] = target: T2, ERO1 in WT and SEPN1 KO myotubes (Mus musculus, UniProt Q8R180); assay: ERO1 redox state by non-reducing immunoblot in WT and SEPN1 KO myotubes; assay type: cell-based, mice; details: 3 h treatment
T2 construct: endogenous in cells; host or cells: primary myotubes from WT and SEPN1 KO C57BL/6 mice
T2 sequence (Q8R180 24-464): T1 sequence (Q8R180 24-464)
Description: Muscle stem cells were isolated from muscles of 1-month-old wild-type (WT) and SEPN1 knockout (KO) mice using a tissue dissociation protocol with the gentleMACS™ Octo Dissociator with Heaters (Miltenyi Biotec, Bergisch Gladbach, Germany), followed by magnetic depletion. To generate myotubes, cells were cultured on Matrigel-coated Ibidi μ-Slide 8 well chambers (Cat. No. 80826, Ibidi GmbH, Gräfelfing, Germany) in DMEM (EuroClone, Pero, Milan, Italy) supplemented with 20 % fetal bovine serum (EuroClone), 3 % chick embryo extract (Cat. 11485015, Fisher Scientific SAS), 10 ng/mL basic fibroblast growth factor (Cat. 13256029, Life Technologies Europe BV), 1 % GlutaMAX (Gibco; Thermo Fisher Scientific, Waltham, MA, USA), and 1 % penicillin-streptomycin (EuroClone).
After 48 h of proliferation, cells were cultured for an additional 2 days in medium containing 2 % horse serum (EuroClone) to induce differentiation, then harvested for analysis. For ERO1 redox state, cells were treated for 3 h with either EN460 or I29, harvested and followed by a non-reducing ERO1 Immunoblot.

WT and SEPN1 KO myotubes = assay: TMRM staining of mitochondrial membrane potential in WT and SEPN1 KO myotubes; assay type: cell-based, mice; details: 1–5 μM, 16 h treatment
Description: Muscle stem cells were isolated from muscles of 1-month-old wild-type (WT) and SEPN1 knockout (KO) mice using a tissue dissociation protocol with the gentleMACS™ Octo Dissociator with Heaters (Miltenyi Biotec, Bergisch Gladbach, Germany), followed by magnetic depletion. […]
After 16 h of treatment with EN460 or I29 in differentiation medium, the culture medium was removed and replaced with the TMRM staining solution for the assessment of mitochondrial membrane potential. […] TMRM fluorescence was acquired at λexc 561 nm / λem 595 nm by a Nikon A1 confocal system equipped with an Okolab stage incubator (CO2 5 %, 37°C, 90 % humidity) immediately after TMRM and over a 10-minute baseline period with 65 s time interval. […] Data were analyzed using ImageJ. Briefly, background noise was set to NaN and the remaining signal quantified as mean pixel gray values. Data were expressed as ΔF/F0 (F0= mean of baseline signal).

[4] = selenium-supplemented (0.4 ppm) SEPN1 KO mice

Compound | aqueous solubility [1] | respiratory function (WT and SEPN1 KO mice; SEPN1 KO mice) | respiratory parameters (WT and SEPN1 KO mice; WT mice, independent of selenium content in the diet) | variability in tidal volume (CV TV) (WT and SEPN1 KO mice; selenium-deficient SEPN1 KO mice) | variability in respiratory frequency (CV f) (WT and SEPN1 KO mice; [4]) | variability in tidal volume (CV TV) (WT and SEPN1 KO mice; [4]) | ERO1 redox assay compared with EN460 (ERO1 in E0771 cells) | CHOP expression [2] | reduced state of ERO1 compared with EN460 [3] | TMRM fluorescence (mitochondrial membrane potential) (WT and SEPN1 KO myotubes)
O=C(O)c1cc(N2N=C(C(F)(F)F)/C(=C\c3ccc(-c4ccccc4)o3)C2=O)ccc1Cl [EN460, reference compound] | poor aqueous solubility |  |  |  |  |  |  |  |  | 
O=C1/C(=C/c2ccc(-c3ccccc3)o2)C(C(F)(F)F)=NN1c1ccccc1F [I29] |  | failed to improve respiratory function | mild improvement in respiratory parameters | increased CV TV | concomitant reduction in CV f | consistently reduced CV TV | superior efficacy of I29 over EN460 | downregulate CHOP expression | more effective than EN460 | significant increase in TMRM fluorescence
